Experimental data published in patent US9486405B2, “Methods for the treatment of pediatric otic disorders” (Otonomy, Inc., priority 2013, dated 2016).

Assays:
[1] = Middle ear histology, one-month acute ototoxicity study; format: in vivo, guinea pig; conditions: at termination; Composition A 2% and 6% single IT-ANT; drops twice daily for 7 days; gentamicin single IT-ANT
Description: (§1) At termination, functional and anatomic assessments of the middle and inner ear compartments were conducted.
Histological analysis of middle ear paraffin sections was conducted at termination.
Middle ear histology—Guinea pigs received vascular perfusion through the heart with an isotonic saline solution followed by fixative containing 4% paraformaldehyde (PFA) in phosphate buffer. Left and right temporal bones were removed and trimmed. Left ear cochleae were designated for inner ear assessment and the right ear cochleae for middle ear histology. Cochleae of the left ear were fixed by intrascalar perfusion of 4% PFA. The temporal bones were then placed in 4% PFA for approximately 1 hour and transferred to a vial containing 0.5% PFA in phosphate buffer. The right temporal bones were trimmed, and then each was placed in a cassette containing 5% EDTA in phosphate buffer. The cassettes were placed into a PELCO 3451 Microwave System, running constantly for 3-5 days. Ears were then dehydrated in EtOH and processed in JB-4 Glycol Methacrylate resin, placed into molds containing the resin and polymerized at ˜4° C. for ˜12 h. Blocks containing temporal bones were trimmed and 5 μm sections were cut with a Leica RM2165 Microtome and stained with Paragon stain. Sections were examined under bright field optics. Middle ear sections were assessed for tissue reaction and inflammatory response. […]

[2] = test system: inner and outer hair cells; assay: Inner ear cytocochleogram, one-month acute ototoxicity study; format: in vivo, guinea pig; conditions: at termination; 2% and 6% single IT-ANT; drops twice daily for 7 days; gentamicin single IT-ANT
Description: as §1
Inner ear cytocochleogram—The left ear cochleae were carefully removed from the temporal bones and then further dissected, first removing the bony otic capsule, followed by removal of lateral wall tissues, including spiral ligament and stria vascularis. The tectorial membrane was then removed and the cochleae placed in a solution of rhodamine labeled phalloidin, diluted 1:100 in phosphate buffered saline (PBS), for 30-120 min, in the dark, followed by two washes in PBS. The cochlear sensory neural epithelium was then dissected away from the modiolus, starting at the apex, to produce surface preparations of the cochlear spiral. Each segment was mapped for location and placed on a slide. A quantitative assessment of presence or absence of hair cells was then carried out, beginning at apex and proceeding to the base, to produce a cytocochleogram, with presence or absence or hair cells mapped by position along the cochlear spiral.

For gentamicin, the “middle ear histology finding” value [1] was “moderate chronic inflammation” and the “hair cell loss (cytocochleogram)” value [2] was “profound to complete hair cell loss”.
